In ChEMBL document CHEMBL4619716, “Machine Learning in Mass Spectrometry: A MALDI-TOF MS Approach to Phenotypic Antibacterial Screening” (2020):
The source made the active and inactive calls. The rule behind the calls is not given here.

Each molecule was assayed on Escherichia coli (assay: Antimicrobial activity against Escherichia coli ATCC 25922 assessed as induction of changes in mass spectral profile of bacteria by measuring decrease in peak at m/z 6320 and increase in peak at m/z 6405 at 1/16 to 1 times MIC uM by MALDI-TOF MS analysis).
Format: functional, organism-based

With `CC1(C)S[C@@H]2[C@H](NC(=O)[C@H](N)c3ccc(O)cc3)C(=O)N2[C@H]1C(=O)O` as the molecule, how does the Activity read?
Its Activity is “Dose-dependent effect”.

The molecules below were run on Escherichia coli (assay: Antimicrobial activity against Escherichia coli ATCC 25922 assessed as induction of changes in mass spectral profile of bacteria 1 times MIC uM by MALDI-TOF MS analysis).
Format: functional, organism-based

With `CN[C@H](CC(C)C)C(=O)N[C@H]1C(=O)N[C@@H](CC(N)=O)C(=O)N[C@H]2C(=O)N[C@H]3C(=O)N[C@H](C(=O)N[C@H](C(=O)O)c4cc(O)cc(O)c4-c4cc3ccc4O)[C@H](O)c3ccc(c(Cl)c3)Oc3cc2cc(c3O[C@@H]2O[C@H](CO)[C@@H](O)[C@H](O)[C@H]2O[C@H]2C[C@](C)(N)[C@H](O)[C@H](C)O2)Oc2ccc(cc2Cl)[C@H]1O` as the molecule, how does the Activity read?
Its Activity is “Active”.

How did the Activity turn out when `CC1(C)S[C@@H]2[C@H](NC(=O)[C@H](N)c3ccc(O)cc3)C(=O)N2[C@H]1C(=O)O` was run?
Its Activity is “Active”.

`CC1(C)S[C@@H]2[C@H](NC(=O)Cc3ccccc3)C(=O)N2[C@H]1C(=O)O` was tested. Which Activity did it give?
Its Activity is “Active”.

With `CO/N=C(\C(=O)N[C@@H]1C(=O)N2C(C(=O)O)=C(COC(C)=O)CS[C@H]12)c1csc(N)n1` as the molecule, how does the Activity read?
The Activity was “Active”.

Which Activity does the source give for `CO/N=C(\C(=O)N[C@@H]1C(=O)N2C(C(=O)O)=C(COC(N)=O)CS[C@H]12)c1ccco1` here?
The Activity was “Active”.
